Data reported in PubChem BioAssay AID623988 (Vanderbilt High Throughput Screening Facility, 2012).

Target: Voltage-gated inwardly rectifying potassium channel KCNH2 (Homo sapiens) (UniProt Q12809)
Test: hERG channel inhibition by thallium flux, dose response, selectivity assay for GIRK activator project, cell-based, concentration-response (AID 623988)
Details: hERG-expressing HEK293 cells, thallium flux fluorescence

Sequence of Voltage-gated inwardly rectifying potassium channel KCNH2 (Homo sapiens) (Q12809 whole entry, looked up): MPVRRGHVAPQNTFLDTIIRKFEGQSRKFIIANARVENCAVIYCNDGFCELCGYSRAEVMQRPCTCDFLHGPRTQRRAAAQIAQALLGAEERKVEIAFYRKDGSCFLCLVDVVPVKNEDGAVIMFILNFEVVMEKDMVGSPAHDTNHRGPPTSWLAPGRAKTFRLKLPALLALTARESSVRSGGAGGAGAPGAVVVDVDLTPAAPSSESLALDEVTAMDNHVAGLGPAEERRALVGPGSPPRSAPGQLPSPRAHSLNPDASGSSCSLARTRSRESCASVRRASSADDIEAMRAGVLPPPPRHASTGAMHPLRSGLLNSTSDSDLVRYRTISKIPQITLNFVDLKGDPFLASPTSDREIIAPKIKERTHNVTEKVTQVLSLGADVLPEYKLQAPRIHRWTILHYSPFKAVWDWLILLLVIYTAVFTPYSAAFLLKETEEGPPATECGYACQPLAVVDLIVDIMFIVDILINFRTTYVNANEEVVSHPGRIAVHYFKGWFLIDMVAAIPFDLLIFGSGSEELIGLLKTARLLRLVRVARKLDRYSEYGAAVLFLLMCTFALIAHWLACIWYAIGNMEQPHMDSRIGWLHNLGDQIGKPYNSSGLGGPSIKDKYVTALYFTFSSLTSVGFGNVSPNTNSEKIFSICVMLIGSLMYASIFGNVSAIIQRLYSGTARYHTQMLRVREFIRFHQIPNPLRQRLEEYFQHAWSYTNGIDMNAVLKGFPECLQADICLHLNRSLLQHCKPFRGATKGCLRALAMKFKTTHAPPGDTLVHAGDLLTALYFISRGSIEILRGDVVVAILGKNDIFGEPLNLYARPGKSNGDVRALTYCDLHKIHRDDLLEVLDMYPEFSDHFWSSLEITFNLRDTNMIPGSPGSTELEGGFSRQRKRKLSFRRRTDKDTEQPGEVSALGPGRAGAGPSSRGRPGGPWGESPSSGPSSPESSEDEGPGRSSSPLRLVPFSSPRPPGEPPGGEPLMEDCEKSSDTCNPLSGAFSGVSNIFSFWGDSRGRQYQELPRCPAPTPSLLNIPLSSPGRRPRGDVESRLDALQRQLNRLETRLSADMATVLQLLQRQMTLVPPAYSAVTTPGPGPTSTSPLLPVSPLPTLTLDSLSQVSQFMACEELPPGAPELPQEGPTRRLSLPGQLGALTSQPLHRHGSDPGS

Question: How did the IC50 turn out when Cc1cc(NC(=O)Nc2ccc(F)c(F)c2)n(-c2ccccc2)n1 was run?
Answer: 10.8 µM
